Literature values as cited in patent US20210095288A1, “METHODS OF MODULATING NKX6.3” (SOCIETE DES PRODUITS NESTLE S.A., priority 2018, published 2021).

Test system: NKX6.3
Conditions: effect on NKX6.3 expression; from Davis A P, et al., Comparative Toxicogenomics Database: update 2017

SMILES	Interaction Actions
COC[C@@H]([C@H](O)[C@H](O)C(=O)NCC[C@H](C)c1nc(/C=C/C[C@@H]2O[C@]3(C[C@@H](O)[C@@H]2C)O[C@H]([C@H](C[C@H](O)[C@H](C)[C@H](O)[C@H](C)/C=C(C)/C(C)=C/C=C/C(C)=C\C#N)OC)[C@H](OP(=O)(O)O)C3(C)C)co1)N(C)C [calyculin A]	Decreases
CCC[CH2][Sn]([CH2]CCC)([CH2]CCC)[O][Sn]([CH2]CCC)([CH2]CCC)[CH2]CCC [bis(tri-n-butyltin)oxide]	Decreases
CC(C)(c1ccc(O)cc1)c1ccc(O)cc1 [bisphenol A]	Decreases
CCCc1cc(=O)[nH]c(=S)[nH]1 [Propylthiouracil]	Decreases
CC(=O)Nc1ccc(O)cc1 [Acetaminophen]	Decreases
